Experimental data reported in patent publication US20070207198A1, “Use Of N-Acety1-D-Glucosamine In The Manufacture Of Medicaments For Anti-Tumors And Anti-Metastasis” (Beijing Sino-Hong Kong Dafu Science & Technology of Biowave …, priority 2003, published 2007).

Assays:
Proteus Mirabilis = test: Promoting wave test (bio-wave model); type: cell-based; conditions: final concentration 0.5% on LB plate, 37° C.
Text: 2. Experimental results and evaluation: • The experiment adopted a bio-wave model for studying the promoting wave function of the compound of formula (I).

B16 cells = test: Sole-injected B16 tumor growth in mice; type: in vivo, Kunming mice and Balbc mice; parameters: Diameter of tumor: unit not given here; conditions: for Diameter of tumor: 10% aqueous solution i.p.
Protocol: 1.1 Animals Kunming mice, Scad male mice
1.2 Tumor cells: B16 cells, PG cells and Biu cells, which were presented by from the Staff Room of Pathology of the present university and the Tumor Department of the Second Affiliated Hospital, respectively.
1.3 Methods: soles of Kunming mice and Balbc mice were injected with B16 cell suspension, and these mice were intraperitoneally injected with 10% aqueous solution of the compound of formula (I) at 0th, 4th and 7th day after B16 cells were injected.

[1] = in vivo
Text: 1. Acute toxicity test: including tests of administrating medicine orally, intravenous injection and maximum limit amount for administration;

[2] = Typical case: breast cancer patient, metastasis after operation; type: in vivo, human; conditions: injection 15 g/60 kg/day before and for a week after the operation; within one year after the operation
Text: Chen, female, was accepted by the Department of Surgery of Chuanxinan Mining Area Hospital for suffering with breast cancer. The chief physician, Chen Qi, considered the high metastasis rate after operation, administrated Chen via injected with the compound of formula (I) in a dose of 15 g/60 kg/day before the operation and for a continuous week after the operation.

CC(=O)N[C@@H]1[C@@H](O)[C@H](O)[C@@H](CO)O[C@H]1O [compound of formula (I), N-acetyl-D-glucosamine]
promoting wave function (ring pattern compared with control) (Proteus Mirabilis): many fine waves on each ring emerged | Diameter of tumor (B16 cells; Group I (administered immediately), observation time 3): 0 | Diameter of tumor (B16 cells; Group I (administered immediately), observation time 7): 0.11 | Diameter of tumor (B16 cells; Group I (administered immediately), observation time 14): 0.18 | Diameter of tumor (B16 cells; Group I (administered immediately), observation time 21): 0.21 | Diameter of tumor (B16 cells; Group I (administered immediately), observation time 28): 0.15 | Diameter of tumor (B16 cells; Group II (administered at the 4th day), observation time 3): 0.05 | Diameter of tumor (B16 cells; Group II (administered at the 4th day), observation time 7): 0.12 | Diameter of tumor (B16 cells; Group II (administered at the 4th day), observation time 14): 0.43 | Diameter of tumor (B16 cells; Group II (administered at the 4th day), observation time 21): 0.58 | Diameter of tumor (B16 cells; Group II (administered at the 4th day), observation time 28): 0.72 | Diameter of tumor (B16 cells; Group III (administered at the 7th day), observation time 3): 0.1 | Diameter of tumor (B16 cells; Group III (administered at the 7th day), observation time 7): 0.21 | Diameter of tumor (B16 cells; Group III (administered at the 7th day), observation time 14): 0.60 | Diameter of tumor (B16 cells; Group III (administered at the 7th day), observation time 21): 1.10 | Diameter of tumor (B16 cells; Group III (administered at the 7th day), observation time 28): 1.38 | growth of tumor (B16 cells; high concentration intraperitoneally injected, B16 cells): inhibited | acute dosage relative to the injection dosage for human being [1]: 300 times | dosage at which the acute toxicosis reaction had not appeared [1]: more than 2 g/kg | metastasis after operation [2]: no metastasis occurred
